This test addresses human F508del-CFTR (Homo sapiens, UniProt P13569, DEL508-508). The test can be described thus: F508del-CFTR cell surface expression (corrector activity), DiscoveRx ß-galactosidase complementation chemiluminescence assay in recombinant U2OS cell line.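 As to all read-outs here: U2OS cells co-expressing ProLink-tagged F508del-CFTR and a membrane-anchored enzyme acceptor, where more surface CFTR restores β-galactosidase activity measured by chemiluminescence.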 The conditions noted are these: U2OS cell line, 16h compound incubation; for EC50: EC50, F508del-CFTR cell surface expression, geomean values; for Emax: U2OS, in relation to the Emax of the corrector lumacaftor (=100%), arithmetic mean values.

This note sets out measurements from patent publication US20240208992A1, “MACROCYCLES AS CFTR MODULATORS” (Idorsia Pharmaceuticals Ltd, priority 2021, published 2024).

human F508del-CFTR, sequence (P13569 with tags, fused parts or gaps DEL508-508): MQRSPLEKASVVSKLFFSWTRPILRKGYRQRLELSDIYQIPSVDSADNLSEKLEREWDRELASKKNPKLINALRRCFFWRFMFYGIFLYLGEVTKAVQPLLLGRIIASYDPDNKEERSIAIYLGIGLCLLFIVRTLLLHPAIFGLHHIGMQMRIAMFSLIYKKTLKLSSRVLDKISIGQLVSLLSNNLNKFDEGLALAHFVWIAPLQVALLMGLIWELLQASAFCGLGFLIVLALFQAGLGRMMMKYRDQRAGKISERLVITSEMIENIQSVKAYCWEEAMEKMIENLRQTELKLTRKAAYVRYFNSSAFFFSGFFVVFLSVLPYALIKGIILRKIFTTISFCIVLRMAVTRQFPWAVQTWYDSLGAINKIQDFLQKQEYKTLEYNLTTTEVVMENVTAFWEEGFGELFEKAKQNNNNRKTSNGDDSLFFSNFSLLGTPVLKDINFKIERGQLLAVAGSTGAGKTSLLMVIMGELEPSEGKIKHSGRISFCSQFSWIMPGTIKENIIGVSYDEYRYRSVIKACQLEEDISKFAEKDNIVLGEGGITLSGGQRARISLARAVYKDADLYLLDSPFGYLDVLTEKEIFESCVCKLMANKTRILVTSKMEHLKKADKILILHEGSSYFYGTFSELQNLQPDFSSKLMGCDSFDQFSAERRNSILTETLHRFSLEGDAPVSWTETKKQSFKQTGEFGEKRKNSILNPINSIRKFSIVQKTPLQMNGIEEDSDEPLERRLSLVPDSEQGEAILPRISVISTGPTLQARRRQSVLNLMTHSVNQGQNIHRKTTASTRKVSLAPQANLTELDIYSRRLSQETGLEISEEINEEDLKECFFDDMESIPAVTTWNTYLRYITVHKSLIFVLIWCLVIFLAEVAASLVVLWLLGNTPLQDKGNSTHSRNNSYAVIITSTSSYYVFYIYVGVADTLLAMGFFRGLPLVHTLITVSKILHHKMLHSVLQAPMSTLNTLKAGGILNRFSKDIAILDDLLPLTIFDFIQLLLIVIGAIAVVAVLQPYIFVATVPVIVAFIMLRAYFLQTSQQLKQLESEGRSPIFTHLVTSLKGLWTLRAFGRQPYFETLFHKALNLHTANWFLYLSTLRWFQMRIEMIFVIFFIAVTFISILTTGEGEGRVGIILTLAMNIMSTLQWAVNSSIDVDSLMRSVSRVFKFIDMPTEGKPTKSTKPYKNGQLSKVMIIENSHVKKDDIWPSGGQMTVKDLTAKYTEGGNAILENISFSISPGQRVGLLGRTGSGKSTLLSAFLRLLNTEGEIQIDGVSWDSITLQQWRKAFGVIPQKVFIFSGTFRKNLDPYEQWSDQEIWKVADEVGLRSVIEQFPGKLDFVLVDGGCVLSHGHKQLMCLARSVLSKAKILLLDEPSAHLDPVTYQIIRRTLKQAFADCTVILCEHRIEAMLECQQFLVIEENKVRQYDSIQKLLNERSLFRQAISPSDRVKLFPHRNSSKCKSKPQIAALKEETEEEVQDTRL

On to `CC(C)C[C@H]1C(=O)N2CCOC[C@@H]2C(=O)N[C@H](Cc2ccccc2)COc2ccc3ccccc3c2C(=O)N[C@H](C(=O)NCCc2cccc(Br)c2)CC(=O)N1C` [Example 378, (4aR,7R,18S,22S)-7-benzyl-N-(3-bromophenethyl)-22-isobutyl-21-methyl-5,16,20,23-tetraoxo-1,2,4,4a,5,6,7,8,16,17,18,19,20,21,22,23-hexadecahydronaphtho[1,2-p][1,4]oxazino[3,4-f][1]oxa[4,7,10,14]tetraazacycloheptadecine-18-carboxamide], for which the half-maximal effective concentration (EC50) (in general, the concentration needed to bring the measured effect to its halfway point) amounted to 45 nM and the Emax – broadly, the maximal effect, on the per cent scale that the assay sets – was found to be 138%.

For `Cc1nc2ccc3c(c2o1)C(=O)N[C@H](C(=O)NCCc1ccc2c(c1)OCO2)CC(=O)N(C)[C@@H](CC(C)C)C(=O)N(CCC1CCCCC1)CC(=O)N[C@H](Cc1ccccc1)CO3` [Example 379, (8R,14S,18S)-N-(2-(benzo[d][1,3]dioxol-5-yl)ethyl)-8-benzyl-12-(2-cyclohexylethyl)-14-isobutyl-2,15-dimethyl-10,13,16,20-tetraoxo-7,8,9,10,11,12,13,14,15,16,17,18,19,20-tetradecahydrooxazolo[4′,5′:5,6]benzo[1,2-p][1]oxa[4,7,10,14]tetraazacycloheptadecine-18-carboxamide], the EC50 is 76 nM and the Emax turned out to be 312%.

With `COc1cccc(CCNC(=O)[C@@H]2CC(=O)N(C)[C@@H](CC(C)C)C(=O)N(CCC3CCCCC3)CC(=O)N[C@H](Cc3ccccc3)COc3ccc4nc(C)oc4c3C(=O)N2)c1` [Example 380, (8R,14S,18S)-8-benzyl-12-(2-cyclohexylethyl)-14-isobutyl-N-(3-methoxyphenethyl)-2,15-dimethyl-10,13,16,20-tetraoxo-7,8,9,10,11,12,13,14,15,16,17,18,19,20-tetradecahydrooxazolo[4′,5′:5,6]benzo[1,2-p][1]oxa[4,7,10,14]tetraazacycloheptadecine-18-carboxamide], the concentration giving a half-maximal response (EC50) was 65 nM and the Emax turned out to be 325%.

Take `[2H]C([2H])([2H])Oc1cccc(CCNC(=O)[C@@H]2CC(=O)N(C)[C@@H](CC(C)C)C(=O)N(CCC3CCCCC3)CC(=O)N[C@H](Cc3ccccc3)COc3ccc4nc(C)oc4c3C(=O)N2)c1` [Example 381, (8R,14S,18S)-8-benzyl-12-(2-cyclohexylethyl)-14-isobutyl-N-(3-(methoxy-d3)phenethyl)-2,15-dimethyl-10,13,16,20-tetraoxo-7,8,9,10,11,12,13,14,15,16,17,18,19,20-tetradecahydrooxazolo[4′,5′:5,6]benzo[1,2-p][1]oxa[4,7,10,14]tetraazacycloheptadecine-18-carboxamide]: the EC50 was found to be 68 nM and the Emax was 322%.

Take `CC(C)C[C@H]1C(=O)N(CCC2CCCCC2)CC(=O)N[C@H](Cc2ccccc2)COc2cnc3c(F)cccc3c2C(=O)N[C@H](C(=O)NCCc2ccc3c(c2)OCO3)CC(=O)N1C` [Example 382, (3S,7S,13R)-N-(2-(benzo[d][1,3]dioxol-5-yl)ethyl)-13-benzyl-9-(2-cyclohexylethyl)-18-fluoro-7-isobutyl-6-methyl-1,5,8,11-tetraoxo-1,2,3,4,5,6,7,8,9,10,11,12,13,14-tetradecahydro-[1]oxa[4,7,10,14]tetraazacycloheptadecino[17,16-c]quinoline-3-carboxamide]: the EC50 came out at 44 nM and the Emax is 264%.

With `COc1cccc(CCNC(=O)[C@@H]2CC(=O)N(C)[C@@H](CC(C)C)C(=O)N(CCC3CCCCC3)CC(=O)N[C@H](Cc3ccccc3)COc3cnc4c(F)cccc4c3C(=O)N2)c1` [Example 383, (3S,7S,13R)-13-benzyl-9-(2-cyclohexylethyl)-18-fluoro-7-isobutyl-N-(3-methoxyphenethyl)-6-methyl-1,5,8,11-tetraoxo-1,2,3,4,5,6,7,8,9,10,11,12,13,14-tetradecahydro-[1]oxa[4,7,10,14]tetraazacycloheptadecino[17,16-c]quinoline-3-carboxamide], the EC50 amounted to 65 nM and the Emax was determined as 317%.

Take `[2H]C([2H])([2H])Oc1cccc(CCNC(=O)[C@@H]2CC(=O)N(C)[C@@H](CC(C)C)C(=O)N(CCC3CCCCC3)CC(=O)N[C@H](Cc3ccccc3)COc3cnc4c(F)cccc4c3C(=O)N2)c1` [Example 384, (3S,7S,13R)-13-benzyl-9-(2-cyclohexylethyl)-18-fluoro-7-isobutyl-N-(3-(methoxy-d3)phenethyl)-6-methyl-1,5,8,11-tetraoxo-1,2,3,4,5,6,7,8,9,10,11,12,13,14-tetradecahydro-[1]oxa[4,7,10,14]tetraazacycloheptadecino[17,16-c]quinoline-3-carboxamide]: the EC50 worked out at 54 nM and the Emax is 282%.

Turning to `COc1cccc(CCNC(=O)[C@@H]2CC(=O)N(C)[C@@H](CC(C)C)C(=O)N(C)C3(CC3)C(=O)N[C@H](Cc3ccccc3)COc3ccc4ccccc4c3C(=O)N2)c1` [Example 385, (3′S,7′S,13′R)-13′-benzyl-7′-isobutyl-N-(3-methoxyphenethyl)-6′,9′-dimethyl-1′,5′,8′,11′-tetraoxo-2′,3′,4′,5′,6′,7′,8′,9′,11′,12′,13′,14′-dodecahydro-1′H-spiro[cyclopropane-1,10′-naphtho[1,2-p][1]oxa[4,7,10,14]tetraazacycloheptadecine]-3′-carboxamide], the EC50 was 191 nM and the Emax was determined as 326%.

For the molecule `COc1cccc(CCNC(=O)[C@@H]2CC(=O)N(C)[C@@H](CC(C)C)C(=O)NC3(CC3)C(=O)N[C@H](Cc3ccccc3)COc3ccc4ccccc4c3C(=O)N2)c1` [Example 386, (3′S,7′S,13′R)-13′-benzyl-7′-isobutyl-N-(3-methoxyphenethyl)-6′-methyl-1′,5′,8′,11′-tetraoxo-2′,3′,4′,5′,6′,7′,8′,9′,11′,12′,13′,14′-dodecahydro-1′H-spiro[cyclopropane-1,10′-naphtho[1,2-p][1]oxa[4,7,10,14]tetraazacycloheptadecine]-3′-carboxamide], the EC50 was 393 nM and the Emax was determined as 149%.

On to `CC(C)C[C@H]1C(=O)N2CCOC[C@@H]2C(=O)N[C@H](Cc2ccccc2)COc2ccc3ccccc3c2C(=O)N[C@H](C(=O)NCCc2ccc(-n3nccn3)cc2)CC(=O)N1C` [Example 387, (4aR,7R,18S,22S)-N-(4-(2H-1,2,3-triazol-2-yl)phenethyl)-7-benzyl-22-isobutyl-21-methyl-5,16,20,23-tetraoxo-1,2,4,4a,5,6,7,8,16,17,18,19,20,21,22,23-hexadecahydronaphtho[1,2-p][1,4]oxazino[3,4-f][1]oxa[4,7,10,14]tetraazacycloheptadecine-18-carboxamide], for which the EC50 was determined as 342 nM and the Emax amounted to 215%.

As to `COc1cccc(CCNC(=O)[C@@H]2CC(=O)N(C)[C@@H](CC(C)C)C(=O)N3CCN(C4CC4)C[C@H]3C(=O)N[C@H](Cc3ccccc3)COc3cnc4ccccc4c3C(=O)N2)c1` [Example 388, (9S,13S,19aS,22R)-22-benzyl-18-cyclopropyl-13-isobutyl-N-(3-methoxyphenethyl)-12-methyl-7,11,14,20-tetraoxo-7,8,9,10,11,12,13,14,17,18,19,19a,20,21,22,23-hexadecahydro-16H-pyrazino[2′,11:6,7][1]oxa[4,7,10,14]tetraazacycloheptadecino[17,16-c]quinoline-9-carboxamide], the concentration for a half-maximal effect (EC50) was found to be 310 nM and the Emax worked out at 163%.

Take `COc1cccc(CCNC(=O)[C@@H]2CC(=O)N(C)[C@@H](CC(C)C)C(=O)N3CCN(C4CC4)C[C@@H]3C(=O)N[C@H](Cc3ccccc3)COc3cnc4ccccc4c3C(=O)N2)c1` [Example 389, (9S,13S,19aR,22R)-22-benzyl-18-cyclopropyl-13-isobutyl-N-(3-methoxyphenethyl)-12-methyl-7,11,14,20-tetraoxo-7,8,9,10,11,12,13,14,17,18,19,19a,20,21,22,23-hexadecahydro-16H-pyrazino[2′,1′:6,7][1]oxa[4,7,10,14]tetraazacycloheptadecino[17,16-c]quinoline-9-carboxamide]: the concentration for a half-maximal effect (EC50) was 115 nM and the Emax was determined as 320%.

Consider `COc1cccc(CCNC(=O)[C@@H]2CC(=O)N(C)[C@@H](CC(C)C)C(=O)N3CCN(C4CCC4)C[C@H]3C(=O)N[C@H](Cc3ccccc3)COc3cnc4ccccc4c3C(=O)N2)c1` [Example 390, (9S,13S,19aS,22R)-22-benzyl-18-cyclobutyl-13-isobutyl-N-(3-methoxyphenethyl)-12-methyl-7,11,14,20-tetraoxo-7,8,9,10,11,12,13,14,17,18,19,19a,20,21,22,23-hexadecahydro-16H-pyrazino[2′,11:6,7][1]oxa[4,7,10,14]tetraazacycloheptadecino[17,16-c]quinoline-9-carboxamide], for which the EC50 was determined as 269 nM and the Emax turned out to be 188%.

`COc1cccc(CCNC(=O)[C@@H]2CC(=O)N(C)[C@@H](CC(C)C)C(=O)N3CCN(C4CCC4)C[C@@H]3C(=O)N[C@H](Cc3ccccc3)COc3cnc4ccccc4c3C(=O)N2)c1` [Example 391, (9S,13S,19aR,22R)-22-benzyl-18-cyclobutyl-13-isobutyl-N-(3-methoxyphenethyl)-12-methyl-7,11,14,20-tetraoxo-7,8,9,10,11,12,13,14,17,18,19,19a,20,21,22,23-hexadecahydro-16H-pyrazino[2′,1′:6,7][1]oxa[4,7,10,14]tetraazacycloheptadecino[17,16-c]quinoline-9-carboxamide]: the EC50 is 70 nM and the Emax was 319%.

For `CC(C)C[C@H]1C(=O)N2CCN(C3CC3)C[C@H]2C(=O)N[C@H](Cc2ccccc2)COc2cnc3ccccc3c2C(=O)N[C@H](C(=O)NCCc2ccc3c(c2)OCO3)CC(=O)N1C` [Example 392, (9S,13S,19aS,22R)-N-(2-(benzo[d][1,3]dioxol-5-yl)ethyl)-22-benzyl-18-cyclopropyl-13-isobutyl-12-methyl-7,11,14,20-tetraoxo-7,8,9,10,11,12,13,14,17,18,19,19a,20,21,22,23-hexadecahydro-16H-pyrazino[2′,1′:6,7][1]oxa[4,7,10,14]tetraazacycloheptadecino[17,16-c]quinoline-9-carboxamide], the EC50 was found to be 327 nM and the maximal effect (Emax) came to 144%.
